In US10508109B2 (priority 2015, dated 2019):
Like-named read-outs stand apart in the source and are kept apart here.

Legend:
[1] = system: HCT-116; assay: Cell-based assay, anti-proliferative activity (Cell Counting Kit-8, 72 hours); conditions: Homo sapiens, read-out: IC50 (μM) HCT-116
Outline: (§1)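 Cells seeded at 2,000–3,000 per well and exposed 72 h to compound at 0–100 micro-M (2-fold series). Growth measured with CCK-8; IC50 taken as anti-proliferative indicator.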

[2] = system: CCD-18Co; assay: as above; conditions: Homo sapiens, read-out: IC50 (μM) CCD-18Co
Outline: as §1

[3] = system: PC14; assay: as above; conditions: Homo sapiens, read-out: IC50 (μM) PC14
Outline: as §1

[4] = system: HFL1; assay: as above; conditions: Homo sapiens, read-out: IC50 (μM) HFL1
Outline: as §1

[5] = system: A549; assay: as above; conditions: Homo sapiens, read-out: IC50 (μM) A549
Outline: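 Cells were seeded in 96-well plates and exposed to candidate inhibitors. Cellular growth was then determined with the colorimetric kit, and IC50 values were calculated from the growth data.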

[6] = target: SUV39H2 (Homo sapiens (Human), UniProt Q9H5I1); conditions: read-out: IC50 (μM) Suv 39H2 assay; enzyme assay
Sequence of SUV39H2 (Q9H5I1 whole entry): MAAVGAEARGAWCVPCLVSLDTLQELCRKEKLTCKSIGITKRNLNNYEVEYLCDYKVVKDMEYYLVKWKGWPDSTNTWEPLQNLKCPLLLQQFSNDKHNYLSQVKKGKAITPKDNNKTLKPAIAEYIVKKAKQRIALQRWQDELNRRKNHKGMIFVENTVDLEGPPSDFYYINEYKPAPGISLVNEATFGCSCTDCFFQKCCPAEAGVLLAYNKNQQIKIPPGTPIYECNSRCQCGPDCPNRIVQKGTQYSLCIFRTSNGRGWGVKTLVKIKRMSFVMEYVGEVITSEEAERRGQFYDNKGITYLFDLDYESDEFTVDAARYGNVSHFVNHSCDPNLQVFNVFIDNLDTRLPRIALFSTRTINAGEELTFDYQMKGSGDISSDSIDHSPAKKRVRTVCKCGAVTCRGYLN

[7] = HCT-116 cells, 72 hours, Cell Counting Kit-8
[8] = CCD-18Co cells, 72 hours, Cell Counting Kit-8
[9] = PC-14, PC14 cells, 72 hours, Cell Counting Kit-8
[10] = HFL1 cells, 72 hours, Cell Counting Kit-8
[11] = A549 cells, 72 hours, Cell Counting Kit-8

SMILES	IC50 [1, 7] [µM]	IC50 [2, 8] [µM]	IC50 [3, 9] [µM]	IC50 [4, 10] [µM]	IC50 [5, 11] [µM]	IC50 [6] [µM]	IC50 ([1]; HCT-116, 72 h) [µM]	IC50 ([2]; CCD-18Co, 72 h) [µM]	IC50 ([3]; PC-14, 72 h) [µM]	IC50 ([4]; HFL1, 72 h) [µM]	IC50 ([5]; A549, 72 h) [µM]
COc1cc(OC)c(-c2cn3ccc(NC(=O)[C@@H]4CCCN4)cc3n2)cc1Cl [Example 244, (S)—N-(2-(5-chloro-2,4-dimethoxyphenyl)imidazo[1,2-a]pyridin-7-yl)-pyrrolidine-2-carboxamide]	10	8.8	5.2	9.8	10	0.0533					
COc1cc(OC)c(-c2cn3ccc(N4CCN(S(=O)(=O)C5CC5)C(COCCN(C)C)C4)cc3n2)cc1Cl (stereo not drawn) [Example 245, 2-((4-(2-(5-chloro-2,4-dimethoxyphenyl)imidazo[1,2-a]pyridin-7-yl)-1-(cyclopropylsulfonyl)piperazin-2-yl)methoxy)-N,N-dimethylethanamine]	9.4	5	5.1	5.4	5.5	0.00863					
COc1cc(OC)c(-c2cn3ccc(-c4ccc(C(=O)O)cc4)cc3n2)cc1Cl [Example 246, 4-(2-(5-chloro-2,4-dimethoxyphenyl)imidazo[1,2-a]pyridin-7-yl)benzoic acid]	10	10	10	10	10	0.0143					
COc1cc(OC)c(-c2cn3ccc(-c4ccc(C(=O)NCC5CCCN5)cc4)cc3n2)cc1Cl (stereo not drawn) [Example 248, 4-(2-(5-chloro-2,4-dimethoxyphenyl)imidazo[1,2-a]pyridin-7-yl)-N-(pyrrolidin-2-ylmethyl)benzamide]	2.3	3.1	2.6	5.7	4.6	0.0157					
COc1cc(OC)c(-c2cn3ccc(NC(=O)[C@@H](N)Cc4c[nH]c5ccccc45)cc3n2)cc1Cl [Example 250, (S)-2-amino-N-(2-(5-chloro-2,4-dimethoxyphenyl)imidazo[1,2-a]pyridin-7-yl)-3-(1H-indol-3-yl)propanamide]						0.0427	6.9	4	4.2	3.6	6.6
COc1cc(OC)c(-c2cn3ccc(-c4ccc(C(=O)NCC5CCCNC5)cc4)cc3n2)cc1Cl (stereo not drawn) [Example 251, 4-(2-(5-chloro-2,4-dimethoxyphenyl)imidazo[1,2-a]pyridin-7-yl)-N-(piperidin-3-ylmethyl)benzamide]	5.8	10	5.4	8.3	9.7	0.0308					
COc1cc(OC)c(-c2cn3ccc(NC(=O)[C@@H](N)C(C)C)cc3n2)cc1Cl [Example 252, (S)-2-amino-N-(2-(5-chloro-2,4-dimethoxyphenyl)imidazo[1,2-a]pyridin-7-yl)-3-methylbutanamide]						0.0423	5.4	4.7	6.3	5.9	7.8
COc1cc(OC)c(-c2cn3ccc(NC(=O)[C@H](C)NC(=O)OC(C)(C)C)cc3n2)cc1Cl [Example 253, (S)-tert-butyl (1-((2-(5-chloro-2,4-dimethoxyphenyl)imidazo[1,2-a]-pyridin-7-yl)amino)-1-oxopropan-2-yl)carbamate]	10	6.7	6.9	6.5	10	0.0582					
COc1cc(OC)c(-c2cn3ccc(-c4ccc(C(=O)N5CCNCC5)cc4)cc3n2)cc1Cl [Example 254, (4-(2-(5-chloro-2,4-dimethoxyphenyl)imidazo[1,2-a]pyridin-7-yl)-phenyl)(piperazin-1-yl)methanone]	2.6	3.1	0.99	2.8	2.7	0.0383					
COc1cc(OCSC)c(-c2cn3ccc(N4CCN(S(=O)(=O)C5CC5)CC4)cc3n2)cc1Cl [Example 255, 2-(5-chloro-4-methoxy-2-((methylthio)methoxy)phenyl)-7-(4-(cyclopropylsulfonyl)piperazin-1-yl)imidazo[1,2-a]pyridine]	2.3	1.9	1.5	1.7	2.5	0.00672					
COc1cc(OC)c(-c2cn3ccc(-c4ccc(C(=O)NCC(O)CN)cc4)cc3n2)cc1Cl (stereo not drawn) [Example 256, N-(3-amino-2-hydroxypropyl)-4-(2-(5-chloro-2,4-dimethoxyphenyl)-imidazo[1,2-a]pyridin-7-yl)benzamide]	10	10	10	10	10	0.0217					
CC[C@@H](C)[C@H](NC(=O)OC(C)(C)C)C(=O)Nc1ccn2cc(-c3cc(Cl)c(OC)cc3OC)nc2c1 [Example 257, tert-butyl ((2S,3R)-1-((2-(5-chloro-2,4-dimethoxyphenyl)imidazo[1,2-a]-pyridin-7-yl)amino)-3-methyl-1-oxopentan-2-yl)carbamate]	5.5	5.1	3	5.2	5	0.0435					
CC[C@@H](C)[C@H](N)C(=O)Nc1ccn2cc(-c3cc(Cl)c(OC)cc3OC)nc2c1 [Example 258, (2S,3R)-2-amino-N-(2-(5-chloro-2,4-dimethoxyphenyl)imidazo[1,2-a]-pyridin-7-yl)-3-methylpentanamide]	7.6	4.6	5.7	6.8	5.8	0.0639					
COc1cc(OC)c(-c2cn3ccc(-c4ccc(C(=O)N5CCC(N)CC5)cc4)cc3n2)cc1Cl [Example 259, (4-aminopiperidin-1-yl)(4-(2-(5-chloro-2,4-dimethoxyphenyl)imidazo[1,2-a]pyridin-7-yl)phenyl)methanone]	7.3	10	7.9	8.6	10	0.0586					
CCc1cc(OC)c(Cl)cc1-c1cn2ccc(N3CCNCC3)cc2n1 [Example 260, 2-(5-chloro-2-ethyl-4-methoxyphenyl)-7-(piperazin-1-yl)imidazo-[1,2-a]pyridine]	3.4	3.5	3.4	3.6	6.1	0.0344					
CCc1cc(OC)c(Cl)cc1-c1cn2ccc(N3CCN(S(=O)(=O)C4CC4)CC3)cc2n1 [Example 261, 2-(5-chloro-2-ethyl-4-methoxyphenyl)-7-(4-(cyclopropylsulfonyl)piperazin-1-yl)imidazo[1,2-a]pyridine]	0.18	0.36	0.059	0.18	0.12	0.0966					
COc1cc(C)c(-c2cn3ccc(N4CCN(S(=O)(=O)C5CC5)C(CO)C4)cc3n2)cc1Cl (stereo not drawn) [Example 262, (4-(2-(5-chloro-4-methoxy-2-methylphenyl)imidazo[1,2-a]pyridin-7-yl)-1-(cyclopropylsulfonyl)piperazin-2-yl)methanol]	3.2	5.5	1.1	3.2	2.4	0.0453					
